Patent US9259022B2, “Sweetener” (Tate & Lyle Ingredients Americas LLC, priority 2013, dated 2016)

Experiment: Round table sweetness evaluation by test panelists (sucrose equivalent value, SEV)
Type: in vivo
Details: equal sweet 10 SEV concentrations in neutral pH water, room temperature; references 4%-14% sucrose
Experimental: Round table evaluations were performed with test panelists. Equal sweet 10 SEV concentrations in neutral pH water were made for allulose, AceK and fructose, as well as a composition comprising allulose, AceK and fructose. The components of the test compositions are described in the below tables. The mixed compositions were calculated using the Beidler mixture equation for the sweeteners. The Beidler mixture equation for sweeteners is as follows: […]
The concentration of each component in the mixture in ppm is divided by SEV (c/R) and is plotted against concentration, c. The slope of the linear regression is […]. The y-intercept of the linear regression multiplied by Rmax is the half-maximal sweetness concentration, 1/K. Rmax and 1/K are the two parameters used in the Beidler equation
The equal-molar mixture was tested against reference samples for the panelists to determine SEV values. […] The test samples were served in 2 ounce soufflé cups (approximately 60 ml) coded with 3-digit codes at room temperature. A two minute wait period between samples was enforced. Water and unsalted crackers was available for the panelists to clear their palates before and during testing. EyeQuestion, software distributed by Logic8 BV of Elst, The Netherlands, was used for ballot development and recording of results. Results were collected in EyeQuestion for calculating approximate SEV level of each test sample.
The test products analyzed in this experiment are described below in Table 1.

| SMILES | Mean sucrose equivalent value (SEV), Mean 1 | Median sucrose equivalent value (SEV), Median 1 |
| --- | --- | --- |
| CC1=CC(=O)[N-]S(=O)(=O)O1.[K+] [AceK, potassium salt of 6-methyl-1,2,3-oxathiazine-4(3H)-one 2,2-dioxide] | 9.286 | 8 |
| O=C(CO)[C@@H](O)[C@H](O)[C@H](O)CO [Fructose, fructose] | 10.14 | 10 |
| O=C(CO)C(O)C(O)C(O)CO (stereo not drawn) [Allulose, allulose] | 10.14 | 10 |
